Reference: US6958334B2, “Inhibitors of Akt activity” (Merck & Co., Inc., priority 2001, dated 2005)

Test system: PKC (mix of isoforms)
Assay: PKC assay (counter screen)
Type: biochemical
Conditions: myelin basic protein substrate; read-out: Counter screens IC50 (μM) PKC
Method: Each PKC assay consists of the following components:
Final assay concentrations were as follows: 0.25 mM EGTA, 0.4 mM CaCl, 20 mM Tris pH 7.5, 10 mM MgCl, 1 mM 2-mercaptoethanol, 0.32 mg/ml phosphatidylserine, 0.032 mg/ml diacylglycerol, 10 μM ^33P-ATP, 70 μg/ml MBP, 10 ng/ml PKC, 0.1 mg/ml BSA.
Assays are performed using 96 deep well assay plates. In each assay well 10 μl of solvent control or appropriate inhibitor dilution with 5 μl ^33P-ATP (components #5 and #3) were premixed. In a separate tube, a mixture containing equal volumes of components #1, #2, #4, and #6 was prepared. The assay reaction was initiated, by adding 35 μl of the components #1, #2, #4, and #6 mixture to wells containing ^33P-ATP and inhibitor. The liquid in the assay wells was thoroughly mixed and the assay reactions incubated for 20 minutes at room temperature. The reactions were stopped by adding 100 mM EDTA (50 μl) and 100 mM sodium pyrophosphate (50 μl) and mixing. Phosphorylated MBP was collected on PVDF membranes in 96 well filter plates and quantitated by scintillation counting.

SMILES | IC50
CN(C)CC(C)(C)CNc1nn2c(-c3ccccc3)nnc2c2ccccc12 [Compound 1, 2,2,N,N-tetramethyl-N-(3-phenyl-[1,2,4]triazolo[3,4-α]phthalazin-6-yl)-propane-1,3-diamine] | > 40 µM
COc1ccc(-c2nnc3c4ccccc4c(NCC(C)(C)CN(C)C)nn23)cc1 [Compound 2, N′-[3-(4-Methoxy-phenyl)-[1,2,4]triazolo[4,3-α]phthalazin-6-yl)-2,2,N,N-tetramethyl-propane-1,3-diamine] | > 40 µM
